Measured values taken from patent publication US8501755B2, “Tetrahydropyridothienopyrimidine compounds and methods of use thereof” (Bayer Intellectual Property GmbH, priority 2006, dated 2013).

Key:
Assay type in all cases: cell-based
N87 = assay: In vitro tumor cell proliferation assay (Cell Titer-Glo) in N87 cells; conditions: N87 human gastric carcinoma overexpressing HER2 and HER1; 72 hours exposure; read-out: IC50, activities in N87 cell lines
From the text: (§1) The tumor cell proliferation assay used to test the compounds of the present invention involves a readout called Cell Titer-Glow® Luminescent Cell Viability Assay developed by Promega® (Cunningham, BA “A Growing Issue: Cell Proliferation Assays, Modern kits ease quantification of cell growth” The Scientist 2001, 15(13), 26, and Crouch, S P et al., “The use of ATP bioluminescence as a measure of cell proliferation and cytotoxicity” Journal of Immunological Methods 1993, 160, 81-88), that measures inhibition of cell proliferation. Generation of a luminescent signal corresponds to the amount of ATP present, which is directly proportional to the number of metabolically active (proliferating) cells. A431 cells [human epidermoid carcinoma, ATCC # HTB-20, overexpressing HER1 (EGFR, ErbB1)] and N87 [human gastric carcinoma, ATCC # CRL-1555, overexpressing HER2 (ErbB2) and HER1 (EGFR, ErbB1)] were plated at a density of 2.5×10^3 cells/well in 96 well black-clear bottom tissue culture plates in RPMI media with 10% Fetal Bovine Serum and incubated at 37° C. Twenty-four hours later, test compounds are added at a final concentration range from as high 100 μm to as low […] depend on the activities of the tested compounds in serial dilutions at a final DMSO concentration of 0.1%. Cells were incubated for 72 hours at 37° C. in complete growth media after addition of the test compound. After 72 hours of drug exposure, the plates were equilibrated to room temperature for approximately 30 min. Then, using a Promega Cell Titer Glo Luminescent® assay kit, lysis buffer containing 100 microliters of the enzyme luciferase and its substrate, luciferin mixture, was added to each well. The plates were mixed for 2 min on orbital shaker to ensure cell lysis and incubated for 10 min at room temperature to stabilize luminescence signal. The samples were read on VICTOR2 using Luminescence protocol, and analyzed with Analyze5 software to generate IC50 values.

H1975 cells = assay: In vitro tumor cell proliferation assay (Cell Titer-Glo) in H1975 cells; conditions: NCI-H1975; H1975 human NSCLC expressing mutant HER1 (L858R,T790M); 72 hours exposure; read-out: IC50, activities in H 1975 cell lines
From the text: The tumor cell proliferation assay used to test the compounds of the present invention involves a readout called Cell Titer-Glow® Luminescent Cell Viability Assay developed by Promega® (Cunningham, BA “A Growing Issue: Cell Proliferation Assays, Modern kits ease quantification of cell growth” The Scientist 2001, 15(13), 26, and Crouch, S P et al., “The use of ATP bioluminescence as a measure of cell proliferation and cytotoxicity” Journal of Immunological Methods 1993, 160, 81-88), that measures inhibition of cell proliferation. Generation of a luminescent signal corresponds to the amount of ATP present, which is directly proportional to the number of metabolically active (proliferating) cells.
H1975 cells [human non small cell lung carcinoma, ATCC # CRL-5908, expressing mutant HER1 [(EGFR, ErbB1)(L858R,T790M] were plated at a density of 3×10^3 cells/well in 96 well black-clear bottom tissue culture plates in RPMI media with 10% Fetal Bovine Serum and incubated at 37° C. Twenty-four hours later, test compounds are added at a final concentration range from as high 10 uM to as low 64 pM depending on the activities of the tested compounds in serial dilutions at a final DMSO concentration of 0.1%. Cells were incubated for 72 hours at 37° C. in complete growth media after addition of the test compound. After 72 hours of drug exposure, the plates were equilibrated to room temperature for approximately 30 min. Then, using a Promega Cell Titer Glo Luminescent® assay kit, lysis buffer containing 100 microliters of the enzyme luciferase and its substrate, luciferin mixture, was added to each well. The plates were mixed for 2 min on orbital shaker to ensure cell lysis and incubated for 10 min at room temperature to stabilize luminescence signal. The samples were read on VICTOR2 using Luminescence protocol, and analyzed with Analyze5 software to generate IC50 values.

A431 cells = assay: In vitro tumor cell proliferation assay (Cell Titer-Glo) in A431 cells; conditions: Homo sapiens, A-431, 72 h, A431 human epidermoid carcinoma overexpressing HER1; 72 hours exposure; read-out: IC50, activities in A431 cell lines
From the text: as §1

Structure (SMILES)	IC50 (N87)	IC50 (H1975 cells)	IC50 (A431 cells)
C#Cc1cccc(Nc2ncnc3sc4c(c23)CCN(C(=O)C2=CCCN(C)C2)C4)c1 [Example 31, N-(3-ethynylphenyl)-7-[(1-methyl-1,2,5,6-tetrahydropyridin-3-yl)carbonyl]-5,6,7,8-tetrahydropyrido [4′,3′:4,5]thieno[2,3-d]pyrimidin-4-amine]	200 to 5000 nM	1000 to 10000 nM	1000 to 10000 nM
O=C(/C=C/CN(CCO)CCO)N1CCc2c(sc3ncnc(Nc4ccc(F)c(Cl)c4)c23)C1 [Example 32, 2,2′-{[(2E)-4-{4-[(3-chloro-4-fluorophenyl)amino]-5,8-dihydropyrido [4′,3′:4,5]thieno[2,3-d]pyrimidin-7(6H)-yl}-4-oxobut-2-en-1-yl]imino}diethanol]	< 200 nM	1000 to 10000 nM	1000 to 10000 nM
O=C(/C=C/CN1CCSC1)N1CCc2c(sc3ncnc(Nc4ccc(F)c(Cl)c4)c23)C1 [Example 35, N-(3-chloro-4-fluorophenyl)-7-[(2E)-4-(1,3-thiazolidin-3-yl)but-2-enoyl]-5,6,7,8-tetrahydropyrido [4′3′:4,5]thieno[2,3-d]pyrimidin-4-amine]	200 to 5000 nM	1000 to 10000 nM	1000 to 10000 nM
CCN(C/C=C/C(=O)N1CCc2c(sc3ncnc(Nc4ccc(F)c(Cl)c4)c23)C1)C(C)C [Example 37, N-(3-chloro-4-fluorophenyl)-7-{(2E)-4-[ethyl(isopropyl)amino]but-2-enoyl}-5,6,7,8-tetrahydropyrido [4′3′:4,5]thieno[2,3-d]pyrimidin-4-amine]	< 200 nM	1000 to 10000 nM	1000 to 10000 nM
O=C(/C=C/CN1CCc2ccccc21)N1CCc2c(sc3ncnc(Nc4ccc(F)c(Cl)c4)c23)C1 [Example 38, N-(3-chloro-4-fluorophenyl)-7-[(2E)-4-(2,3-dihydro-1H-indol-1-yl)but-2-enoyl]-5,6,7,8-tetrahydropyrido [4′3′:4,5]thieno[2,3-d]pyrimidin-4-amine]	200 to 5000 nM	1000 to 10000 nM	1000 to 10000 nM
CC(O)CN(C/C=C/C(=O)N1CCc2c(sc3ncnc(Nc4ccc(F)c(Cl)c4)c23)C1)CC(C)O (stereo not drawn) [Example 39, 1,1′-{[(2E)-4-{4-[(3-chloro-4-fluorophenyl)amino]-5,8-dihydropyrido [4′,3′:4,5]thieno[2,3-d]pyrimidin-7(6H)-yl}-4-oxobut-2-en-1-yl]imino}dipropan-2-ol]	< 200 nM	1000 to 10000 nM	1000 to 10000 nM
CCN(C)C/C=C/C(=O)N1CCc2c(sc3ncnc(Nc4ccc(F)c(Cl)c4)c23)C1 [Example 40, N-(3-chloro-4-fluorophenyl)-7-{(2E)-4-[ethyl(methyl)amino]but-2-enoyl}-5,6,7,8-tetrahydropyrido [4′,3′:4,5]thieno[2,3-d]pyrimidin-4-amine]	< 200 nM	200 to 1000 nM	200 to 1000 nM
CC1CN(C/C=C/C(=O)N2CCc3c(sc4ncnc(Nc5ccc(F)c(Cl)c5)c34)C2)CC(C)O1 (stereo not drawn) [Example 41]	< 200 nM	1000 to 10000 nM	200 to 1000 nM
O=C(/C=C/CN1CCSCC1)N1CCc2c(sc3ncnc(Nc4ccc(F)c(Cl)c4)c23)C1 [Example 42, N-(3-chloro-4-fluorophenyl)-7-[(2E)-4-thiomorpholin-4-ylbut-2-enoyl]-5,6,7,8-tetrahydropyrido [4′,3′:4,5]thieno[2,3-d]pyrimidin-4-amine]	< 200 nM	1000 to 10000 nM	1000 to 10000 nM
O=C(/C=C/CN(CCO)CCO)N1CCc2c(sc3ncnc(Nc4ccc(OCc5ccccn5)c(Cl)c4)c23)C1 [Example 43, 2,2′-({(2E)-4-[4-{[3-chloro-4-(pyridin-2-ylmethoxy)phenyl]amino}-5,8-dihydropyrido [4′,3′:4,5]thieno[2,3-d]pyrimidin-7(6H)-yl]-4-oxobut-2-en-1-yl}imino)diethanol]	< 200 nM	1000 to 10000 nM	1000 to 10000 nM
O=C(/C=C/CN1CCc2ccccc21)N1CCc2c(sc3ncnc(Nc4ccc(OCc5ccccn5)c(Cl)c4)c23)C1 [Example 44, N-[3-chloro-4-(pyridin-2-ylmethoxy)phenyl]-7-[(2E)-4-(2,3-dihydro-1H-indol-1-yl)but-2-enoyl]-5,6,7,8-tetrahydropyndo [4′,3′:4,5]thieno[2,3-d]pyrimidin-4-amine]	< 200 nM	1000 to 10000 nM	1000 to 10000 nM
O=C(/C=C/CN1CCC(N2CCCCC2)CC1)N1CCc2c(sc3ncnc(Nc4ccc(F)c(Cl)c4)c23)C1 [Example 45, 7-[(2E)-4-(1,4′-bipiperidin-1-yl)but-2-enoyl]-N-(3-chloro-4-fluorophenyl)-5,6,7,8-tetrahydropyrido [4′,3′:4,5]thieno[2,3-d]pyrimidin-4-amine]	< 200 nM	200 to 1000 nM	1000 to 10000 nM
CC1CC(C)CN(C/C=C/C(=O)N2CCc3c(sc4ncnc(Nc5ccc(OCc6ccccn6)c(Cl)c5)c34)C2)C1 (stereo not drawn) [Example 46, N-[3-chloro-4-(pyridin-2-ylmethoxy)phenyl]-7-[(2E)-4-(3,5-dimethylpiperidin-1-yl)but-2-enoyl]-5,6,7,8-tetrahydropyrido [4′,3′:4,5]thieno[2,3-d]pyrimidin-4-amine]	< 200 nM	200 to 1000 nM	200 to 1000 nM
O=C(/C=C/CN1CCCC(CO)C1)N1CCc2c(sc3ncnc(Nc4ccc(OCc5ccccn5)c(Cl)c4)c23)C1 (stereo not drawn) [Example 47, (1-{(2E)-4-[4-{[3-chloro-4-(pyridin-2-ylmethoxy)phenyl]amino}-5,8-dihydropyrido [4′,3′:4,5]thieno[2,3-d]pyrimidin-7(6H)-yl]-4-oxobut-2-en-1-yl}piperidin-3-yl)methanol]	< 200 nM	200 to 1000 nM	200 to 1000 nM
CC1CCC(C)N1C/C=C/C(=O)N1CCc2c(sc3ncnc(Nc4ccc(OCc5ccccn5)c(Cl)c4)c23)C1 (stereo not drawn) [Example 48, N-[3-chloro-4-(pyridin-2-ylmethoxy)phenyl]-7-[(2E)-4-(2,5-dimethylpyrrolidin-1-yl)but-2-enoyl]-5,6,7,8-tetrahydropyrido [4′,3′:4,5]thieno[2,3-d]pyrimidin-4-amine]	< 200 nM	1000 to 10000 nM	1000 to 10000 nM
CCN(C)C/C=C/C(=O)N1CCc2c(sc3ncnc(Nc4ccc(OCc5ccccn5)c(Cl)c4)c23)C1 [Example 49, N-(3-chloro-4-(pyridin-2-ylmethoxy)phenyl]-7-{(2E)-4-[ethyl(methyl)amino]but-2-enoyl}-5,6,7,8-tetrahydropyrido [4′,3′:4,5]thieno[2,3-d]pyrimidin-4-amine]	< 200 nM	200 to 1000 nM	200 to 1000 nM
O=C(/C=C/Cn1ccnc1)N1CCc2c(sc3ncnc(Nc4ccc(OCc5ccccn5)c(Cl)c4)c23)C1 [Example 51, N-[3-chloro-4-(pyridin-2-ylmethoxy)phenyl]-7-[(2E)-4-(1H-imidazol-1-yl)but-2-enoyl]-5,6,7,8-tetrahydropyrido [4′,3′:4,5]thieno[2,3-d]pyrimidin-4-amine]	< 200 nM	1000 to 10000 nM	200 to 1000 nM
CC(O)CN(C/C=C/C(=O)N1CCc2c(sc3ncnc(Nc4ccc(OCc5ccccn5)c(Cl)c4)c23)C1)CC(C)O (stereo not drawn) [Example 52, 1,1′-({(2E)-4-[4-{[3-chloro-4-(pyridin-2-ylmethoxy)phenyl]amino}-5,8-dihydropyrido [4′,3′:4,5]thieno[2,3-d]pyrimidin-7(6H)-yl]-4-oxobut-2-en-1-yl}imino)dipropan-2-ol]	200 to 5000 nM	1000 to 10000 nM	1000 to 10000 nM
